This assay relates to human peripheral blood mononuclear cells (PBMC). As to the kind of experiment: HTS assay for small molecule immune potentiators: TNF-a production by human PBMC (sandwich ELISA). The class given is cell-based. The settings on record: human PBMC 500,000 per mL, 18 h at 37° C., secreted TNF by sandwich ELISA. The text has this: Candidate small molecule immune potentiators can be identified in vitro. Compounds are screened in vitro for their ability to stimulate human peripheral blood mononuclear cells to produce cytokines (e.g. TNF-a and IL-12 p40). Apoptosis inducing small molecules may be identified having this activity. These small molecule immunopotentiators have potential utility as adjuvants and immunotherapeutics.
In an assay procedure (High Throughput Screening (HTS)) for small molecule immune potentiators (SMIPs), human peripheral blood mononuclear cells (PBMC), 500,000 per mL in RPMI 1640 medium with 10% FCS, are distributed in 96 well plates (100,000 per well) already containing 5 μM of compound in DMSO. The PBMCs are incubated for 18 h at 37° C. in 5% CO2. Their ability to produce cytokines in response to the small molecule compounds is determined using a modified sandwich ELISA.
Briefly supernatants from the PBMC cultures are assayed for secreted TNF using a primary plate bound antibody for capture followed by a secondary biotinylated anti-TNF antibody forming a sandwich. The biotinylated second antibody is then detected using streptavidin-Europium and the amount of bound europium is determined by time resolved fluorescence. Compounds are screened for their TNF inducing activity that is measured in the assay as increased Europim counts over cells incubated in RPMI medium alone. “Hits” are selected based on their TNF-inducing activity relative to an optimal dose of lipopolysaccaride LPS (1 μg/ml), a strong TNF inducer. The robustness of the assay and low backgrounds have allowed for the routine selection of hits with ˜10% of LPS activity that is normally between 5-10× background (cells alone). Selected hits are then subjected to confirmation for their ability to induce cytokines from multiple donors at decreasing concentrations. Those compounds with consistent activity at or below 5 μM are considered confirmed for the purposes of this assay. The assay is readily modified for screening for compounds effective at higher or lower concentrations.
A general note: In an ELISA, binding on a coated surface is turned into a signal by an enzyme label.

Here are results for 32 compounds from patent publication US8193185B2, “Use of tryptanthrin compounds for immune potentiation” (Novartis Vaccines and Diagnostics, Inc., priority 2003, dated 2012).

The structures appear in SMILES notation. Bounds are passed on as bounds.

Usually minimal effective concentration stands for the smallest amount tested that counted as effective. For `O=C1c2cc([N+](=O)[O-])ccc2-n2c1nc1ccccc1c2=O` [Compound 1001, 8-nitroindolo[2,1-b]quinazoline-6,12-dione], the minimal effective concentration is at most 1.5 µM.
For `O=C1c2cc(F)ccc2-n2c1nc1ccc(Cl)cc1c2=O` [Compound 1002, 2-chloro-8-fluoroindolo[2,1-b]quinazoline-6,12-dione], the minimal effective concentration was at least 5 µM.
As to `O=C1c2cc(F)ccc2-n2c1nc1ccc(F)cc1c2=O` [Compound 1003, 2,8-difluoroindolo[2,1-b]quinazoline-6,12-dione], the minimal effective concentration was at least 5 µM.
The same measure for `O=C1c2cc(F)ccc2-n2c1nc1cc(F)ccc1c2=O` [Compound 1004, 3,8-difluoroindolo[2,1-b]quinazoline-6,12-dione]: at most 1.5 µM; for `O=C1c2cccc(F)c2-n2c1nc1ccccc1c2=O` [Compound 1005, 10-fluoroindolo[2,1-b]quinazoline-6,12-dione]: at most 1.5 µM; for `O=C1c2cc(F)ccc2-n2c1nc1cccc(F)c1c2=O` [Compound 1006, 1,8-difluoroindolo[2,1-b]quinazoline-6,12-dione]: at most 1.5 µM.
For `Cc1cccc2nc3n(c(=O)c12)-c1ccc(F)cc1C3=O` [Compound 1007, 8-fluoro-1-methylindolo[2,1-b]quinazoline-6,12-dione], the minimal effective concentration is at most 1.5 µM.
The figure for `O=C1c2cc(F)cc(F)c2-n2c1nc1ccccc1c2=O` [Compound 1008, 8,10-difluoroindolo[2,1-b]quinazoline-6,12-dione] is at most 1.5 µM.
The figure for `O=C1c2cc(F)ccc2-n2c1nc1c(F)cccc1c2=O` [Compound 1009, 4,8-difluoroindolo[2,1-b]quinazoline-6,12-dione] is at least 5 µM.
The figure for `O=C1c2cc(I)ccc2-n2c1nc1c(Br)cc(Br)cc1c2=O` [Compound 1010, 2,4-dibromo-8-iodoindolo[2,1-b]quinazoline-6,12-dione] is at least 5 µM.
As to `Cc1cc(Cl)cc2c1-n1c(nc3ccccc3c1=O)C2=O` [Compound 1011, 8-chloro-10-methylindolo[2,1-b]quinazoline-6,12-dione], the minimal effective concentration was at least 5 µM.
The same measure for `CC(C)(C)OC(=O)N1CCN(c2cc3nc4n(c(=O)c3cc2F)-c2ccc(I)cc2C4=O)CC1` [Compound 1012, 1,1-dimethylethyl 4-(2-fluoro-8-iodo-6,12-dioxo-6,12-dihydroindolo[2,1-b]quinazolin-3-yl)piperazine-1-carboxylate]: at least 5 µM; for `O=C1c2cc(I)ccc2-n2c1nc1c(Br)cc(Br)c(F)c1c2=O` [Compound 1013, 2,4-dibromo-1-fluoro-8-iodoindolo[2,1-b]quinazoline-6,12-dione]: at most 1.5 µM.
On to `O=C1c2cc(I)ccc2-n2c1nc1c(Br)cc(Br)c(Cl)c1c2=O` [Compound 1014, 2,4-dibromo-1-chloro-8-iodoindolo[2,1-b]quinazoline-6,12-dione], for which the minimal effective concentration is at most 1.5 µM.
Turning to `O=C1c2ccccc2-n2c1nc1c(Br)cc(Br)c(F)c1c2=O` [Compound 1015, 2,4-dibromo-1-fluoroindolo[2,1-b]quinazoline-6,12-dione], the minimal effective concentration is at most 1.5 µM.
The figure for `O=C1c2cc(Cl)ccc2-n2c1nc1ccc(I)cc1c2=O` [Compound 1016, 8-chloro-2-iodoindolo[2,1-b]quinazoline-6,12-dione] is at most 1.5 µM; for `O=C1c2cc(Cl)ccc2-n2c1nc1cc(F)ccc1c2=O` [Compound 1017, 8-chloro-3-fluoroindolo[2,1-b]quinazoline-6,12-dione] it is at most 1.5 µM; for `O=C1c2cc(Cl)ccc2-n2c1nc1cc(N3CCCCC3)ccc1c2=O` [Compound 1018, 8-chloro-3-piperidin-1-ylindolo[2,1-b]quinazoline-6,12-dione] it is at least 5 µM.
Turning to `O=C1c2cc(F)ccc2-n2c1nc1c(O)cccc1c2=O` [Compound 1019, 8-fluoro-4-hydroxyindolo[2,1-b]quinazoline-6,12-dione], the minimal effective concentration is at most 1.5 µM.
As to `CCNC(=O)c1ccc2c(c1)C(=O)c1nc3c(OC)cccc3c(=O)n1-2` [Compound 1020, N-ethyl-4-(methyloxy)-6,12-dioxo-6,12-dihydroindolo[2,1-b]quinazoline-8-carboxamide], the minimal effective concentration was at most 1.5 µM.
The same measure for `O=C1c2cc(OC(F)(F)F)ccc2-n2c1nc1ccccc1c2=O` [Compound 1021, 8-[(trifluoromethyl)oxy]indol o[2,1-b]quinazoline-6,12-dione]: at least 5 µM; for `O=C1c2cc(OC(F)(F)F)ccc2-n2c1nc1cc(F)ccc1c2=O` [Compound 1022, 3-fluoro-8-[(trifluoromethyl)oxy]indol o[2,1-b]quinazoline-6,12-dione]: at most 1.5 µM; for `O=C1c2cc(OC(F)(F)F)ccc2-n2c1nc1cc(SCCO)ccc1c2=O` [Compound 1023, 3-[(2-hydroxyethyl)thio]-8-[(trifluoromethyl)oxy]indol o[2,1-b]quinazoline-6,12-dione]: at most 1.5 µM.
Regarding `O=C1c2ccccc2-n2c1nc1ncccc1c2=O` [Compound 1024, pyrido[2′,3′:4,5]pyrimido[1,2-a]indole-5,11-dione], the minimal effective concentration is at most 1.5 µM.
The figure for `O=C1c2cc(F)ccc2-n2c1nc1ncccc1c2=O` [Compound 1025, 9-fluoropyrido[2′,3′:4,5]pyri-mido[1,2-a]indole-5,11-dione] is at most 1.5 µM.
On to `O=C1c2cc(Br)ccc2-n2c1nc1ncccc1c2=O` [Compound 1026, 9-bromopyrido[2′,3′:4,5]pyri-mido[1,2-a]indole-5,11-dione], for which the minimal effective concentration was at most 1.5 µM.
Take `O=C1c2cc(Cl)ccc2-n2c1nc1ncccc1c2=O` [Compound 1027, 9-chloropyrido[2′,3′:4,5]pyri-mido[1,2-a]indole-5,11-dione]: the minimal effective concentration was at most 1.5 µM.
On to `O=C1c2cc(I)ccc2-n2c1nc1ncccc1c2=O` [Compound 1028, 9-iodopyrido[2′,3′:4,5]pyrimi-do[1,2-a]indole-5,11-dione], for which the minimal effective concentration was at most 1.5 µM.
For `CCOC(=O)c1ccc2c(c1)C(=O)c1nc3ncccc3c(=O)n1-2` [Compound 1029, ethyl 5,11-dioxo-5,11-dihydropyrido[2′,3′:4,5]py-rimido[1,2-a]indole-9-carboxylate], the minimal effective concentration is at most 1.5 µM.
The same measure for `CCCCCCCCNS(=O)(=O)c1ccc2c(c1)C(=O)c1nc3ncccc3c(=O)n1-2` [Compound 1030, N-octyl-5,11-dioxo-5,11-dihydropyrido[2′,3′:4,5]py-rimido[1,2-a]indole-9-sulfonamide]: at most 1.5 µM.
The figure for `O=C1c2c(cccc2C(F)(F)F)-n2c1nc1ncccc1c2=O` [Compound 1031, 10-(trifluoromethyl)pyrido[2′, 3′:4,5]pyrimido[1,2-a]indole-5,11-dione] is at most 1.5 µM; for `CCOP(=O)(CCCC/C=C/c1ccc2c(c1)C(=O)c1nc3ncccc3c(=O)n1-2)OCC` [Compound 1032, diethyl (5E)-6-(5,11-dioxo-5,11-dihydropyrido[2′,3′:4,5]py-rimido[1,2-a]indol-9-yl)hex-5-enylphosphonate] it is at least 5 µM.
